In ChEMBL document CHEMBL1201862, “PubChem BioAssay data set” (2004):
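Five concentrations, 48 hours, 96-well plates. Abbreviation: GI50, concentration required for 50% inhibition of growth.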 Active and inactive are the calls of the source. Rule as the data show it: active = GI50 up to about 1.1 µM and inactive = higher.

Tests used:
Test in all cases: NCI anticancer screen, dose series, 48 h
[1] = tested on: CAKI-1
[2] = tested on: UO-31
[3] = tested on: CCRF-CEM
[4] = tested on: MOLT-4
[5] = tested on: HCC 2998
[6] = tested on: M14
[7] = tested on: RPMI-8226
[8] = tested on: SN12C
[9] = tested on: SK-MEL-5
[10] = tested on: NCI-H460
[11] = tested on: IGROV-1
[12] = tested on: TK-10
[13] = tested on: SNB-19
[14] = tested on: OVCAR-3
[15] = tested on: LOX IMVI
[16] = tested on: NCI-H23

Measured: GI50

C1CCOC2(CCC3(CC2)OCCCCO3)OC1
inactive: [1] > 100 µM | [2] > 100 µM | [3] > 100 µM | [4] > 100 µM | [5] > 100 µM | [6] > 100 µM | [7] > 100 µM | [8] > 100 µM | [9] > 100 µM | [10] > 100 µM | [11] > 100 µM | [12] > 100 µM | [13] > 100 µM

CC1=C(C(=O)Nc2cc(F)c(F)cc2F)C(c2ccc3c(c2)OCO3)C(C(=O)Nc2cc(F)c(F)cc2F)=C(C)N1
inactive: [1] 11.8 µM | [14] 15.7 µM | [2] 12.9 µM | [3] 19.5 µM | [4] 14.2 µM | [5] 19.2 µM | [6] 24.2 µM | [7] 16 µM | [8] 18.7 µM | [9] 19.4 µM | [10] 25.2 µM | [15] 14.4 µM | [11] 28.7 µM | [12] 23.9 µM | [16] 19.8 µM | [13] 38.4 µM

COC(=O)C1=C(C(=O)OC)C2C=CC1C1C(Cl)=C(Cl)C21 (stereo not drawn)
inactive: [1] > 100 µM | [14] > 100 µM | [2] > 100 µM | [3] > 100 µM | [4] > 100 µM | [5] > 100 µM | [6] > 100 µM | [7] > 100 µM | [8] > 100 µM | [9] 88.7 µM | [10] > 100 µM | [15] > 100 µM | [11] > 100 µM | [12] > 100 µM | [16] > 100 µM

CC(=O)O[C@]1(C)OC(=O)[C@@H](CC(C)C)N1[N+](=O)[O-]
inactive: [14] > 100 µM | [2] > 100 µM | [3] > 100 µM | [4] > 100 µM | [5] > 100 µM | [6] > 100 µM | [7] > 100 µM | [8] > 100 µM | [9] > 100 µM | [10] > 100 µM | [15] > 100 µM | [11] > 100 µM | [12] > 100 µM | [16] > 100 µM | [13] > 100 µM

COc1ccc(C2S/C(=C\c3cccc([N+](=O)[O-])c3)C(=O)N2NC(=O)Cc2ccccc2)cc1 (stereo not drawn)
inactive: [1] > 100 µM | [2] > 100 µM | [3] > 100 µM | [4] > 100 µM | [6] > 100 µM | [7] > 100 µM | [8] > 100 µM | [9] > 100 µM | [10] > 100 µM | [15] > 100 µM | [11] > 100 µM | [12] > 100 µM | [16] > 100 µM

[O-][S+]1Nc2cccc(C(F)(F)F)c2S1 (stereo not drawn)
inactive: [1] 30.5 µM | [14] 33.5 µM | [2] 19.1 µM | [3] 6.78 µM | [4] 21 µM | [5] 26.4 µM | [6] 65.3 µM | [7] 29 µM | [8] 35.6 µM | [9] 42 µM | [10] 40.9 µM | [15] 21.1 µM | [11] 38.5 µM | [12] 34.4 µM | [16] 41.8 µM | [13] 67.1 µM

O=C(CCC(=O)Nc1cccc(C(F)(F)F)c1)CC(=O)c1ccc2ccccc2c1
inactive: [1] > 100 µM | [14] > 100 µM | [2] > 100 µM | [3] > 100 µM | [4] > 100 µM | [5] > 100 µM | [6] > 100 µM | [7] > 100 µM | [8] > 100 µM | [9] > 100 µM | [10] > 100 µM | [15] > 100 µM | [11] > 100 µM | [12] > 100 µM | [16] > 100 µM | [13] > 100 µM

CC(=O)Nc1ccc(-c2nnc(SCC(=O)Nc3ccccc3[N+](=O)[O-])o2)cc1
inactive: [1] > 100 µM | [14] 34.4 µM | [2] 81.3 µM | [3] > 100 µM | [4] 71.4 µM | [6] > 100 µM | [7] > 100 µM | [8] > 100 µM | [9] > 100 µM | [10] > 100 µM | [15] > 100 µM | [11] > 100 µM | [12] > 100 µM | [16] > 100 µM

COc1c(C(=O)O)oc2c(OC)cccc12
inactive: [14] > 100 µM | [2] > 100 µM | [3] > 100 µM | [4] > 100 µM | [5] > 100 µM | [6] > 100 µM | [7] > 100 µM | [8] > 100 µM | [9] > 100 µM | [10] > 100 µM | [15] > 100 µM | [11] > 100 µM | [12] > 100 µM | [16] > 100 µM | [13] > 100 µM
